From PMC10296415, “Methyl-Thiol-Bridged Oxadiazole and Triazole Heterocycles as Inhibitors of NF-κB in Chronic Myelogenous Leukemia Cells” (Biomedicines, 2023)

Tests used:
MCF-7 cell line = assay: MTT cell viability assay, MCF-7; type: cell-based
Method: (§1) MCF-7 cells were purchased from Procell Life Science and Technology Co., Ltd., Wuhan, China, and cultured in MEM or Leibovitz’s L-15 medium containing 2% FBS. MCF-7 cells were maintained in a 5% CO2-humidified atmosphere at 37 °C. KCL22, LAMA84, and K562 cells were obtained from the American Type Culture Collection (Manassas, VA, USA). The KBM5 cell line was previously provided by Dr. Bharat Aggarwal (University of Texas M.D. Anderson Cancer Center, Houston, TX, USA). KBM5 cells were cultured in IMDM medium with 10% inactivated FBS and 1% penicillin-streptomycin. KCL22, LAMA84, and K562 cells were cultured in RPMI with 10% FBS and 1% penicillin-streptomycin antibiotics and maintained at 37 °C in a 5% CO2 chamber.
(§2) Cells (1 × 10^4 cells/well) were seeded on a 96-well plate and treated with 4c (0, 5, 10, 15, 30, 50 µM) for 24 h. After 24 h of treatment, 30 µL of MTT solution (2 mg/mL) for 2 h, followed by MTT lysis overnight. Cell viability was analyzed by measuring the absorbance of lysed MTT crystals using VARIOSKAN LUX (Thermo Fisher Scientific Inc., Waltham, MA, USA) at 570 nm.

MCF-10A cells = assay: Cytotoxicity assay, MCF-10A; type: cell-based; details: Homo sapiens, MCF-10A; normal mammary epithelial cells
Method: as §2

[1] = system: CML cells (KMB5, KCL22, LAMA84, and K562 cell lines); assay: MTT cell viability assay, CML cells; type: cell-based, human; details: 0, 5, 10, 15, 30, 50 µM, 24 h
Method: as §1, §2

[2] = MTT cell viability assay, PBMC; type: cell-based; details: normal PBMC cells, 30 and 50 µM
Method: as §2

NF-κB = assay: EMSA of TNFα-induced NF-κB DNA binding in CML cells; type: cell-based, human; details: 4c 0, 5, 15, 30 µM 2 h, then TNFα 0.5 nM 10 min; nuclear extracts
Method: CML cells (1 × 10^6 cells/well) were treated with indicated concentrations of 4c (0, 5, 15, 30 µM) for 2 h, then TNFα (0.5 nM) for 10 min. Nuclei extracts were prepared from whole cell pellets and incubated with NF-κB oligonucleotides (5′-[…]-3′ and 5′-[…]-3′), and Oct-1 (5′-[…]-3′ and 5′-[…] -[…]-3′) was used for loading control. The protein–DNA complex was run on a 5% gel, and the respective proteins were detected using the EMSA kit (Waltham, MA, USA).

NF-κB-p65 = assay: Immunocytochemistry of p65 nuclear translocation in CML cells; type: cell-based, human; details: 4c 30 µM 2 h, then TNFα 0.5 nM 10 min
Method: CML cells (1 × 10^6 cells/well) were treated with 4c (0 or 30 µM) for 2 h, followed by TNFα (0.5 nM) addition for 10 min. Further, the CML cells were fixed, permeabilized, and blocked with 5% BSA-PBS. The cells were visualized by using primary anti-p65 antibodies and secondary antibodies called Alexa Fluor® 594 donkey anti-rabbit IgG (H + L). Nuclei were stained with DAPI, and the immobilized cells were mounted with Fluorescent Mounting Medium (Golden Bridge International Labs, Mukilteo, WA, USA) and finally quantified using an Olympus FluoView FV1000 confocal microscope (Tokyo, Japan).

[3] = system: p-IKKα/β, p-IκBα, phospho-p65; assay: Western blot of NF-κB complex subunits in CML cells; type: cell-based, human; details: 4c 30 µM pre-treatment, TNFα 0.5 nM
Method: (§3) CML cells were treated with compound 4c, harvested, and the cell lysates were obtained. The required proteins of our interest were separated on SDS-PAGE and transferred into the nitrocellulose membrane. The membrane was incubated with primary antibody and HRP-conjugated secondary antibody in a sequential manner. The ECL kit (EZ-Western Lumi Femto, DOZEN) was used to detect the respective proteins.

[4] = system: COX-2 binding to p65 promoter; assay: ChIP assay in CML cells; type: cell-based, human; details: 4c 0, 5, 15, 30 µM
Method: CML cells (1 × 10^6 cells/well) were incubated with compound 4c (5, 15, 30 µM) for 24 h and immunoprecipitated with anti-NF-κB p65 antibody. RT-PCR was performed with COX-2 at 94 °C for 5 min, 94 °C for 30 s, 58 °C for 30 s, 72 °C for 30 s with 30 cycles, and extension at 72 for 7 min. All the experiments were performed 3 times as individual repeats.

[5] = system: survivin, MMP-9, Bcl-2/xl, VEGF, COX-2, PARP; assay: Western blot of NF-κB regulated proteins and PARP in CML cells; type: cell-based, human; details: 4c 30 µM pretreatment, TNFα 0.5 nM for 0, 6, 12, 24 h
Method: as §3

COc1ccc(Cc2nnc(SCc3cn(-c4ccc(Cl)c(Cl)c4)nn3)o2)cc1 [Compound 4c, 2-(((1-(3,4-Dichlorophenyl)-1H-1,2,3-triazol-4-yl)methyl)thio)-5-(4-methoxybenzyl)-1,3,4-oxadiazole]
IC50 (MCF-7 cell line; Homo sapiens, MCF7, viability of MCF-7 cell line): 9 to 16 µM | IC50 (MCF-7 cell line; viability of MCF-7 cell line): 7.4 ± 0.87 µM | IC50 (MCF-10A cells): > 100 µM | cell viability in CML cells [1]: concentration-dependent loss of cell viability | viability at 24 h [2]: > 80% | binding of NF-κB to DNA induced by TNFα (NF-κB): substantially inhibited | translocation of NF-κB-p65 to nuclei (NF-κB-p65): suppressed the translocation of NF-κB-p65 to nuclei | p-IKKα/β and p-IκBα induced by TNFα ([3]; cytoplasmic extracts): inhibited | phospho-p65 in nuclei ([3]; nuclear extracts): suppressed phospho-p65 in nuclei | p65 binding to the COX-2 promoter [4]: markedly inhibited COX-2 binding to the p65 promoter | cleavage of PARP [5]: enhanced the cleavage of PARP | expression of anti-apoptotic proteins (survivin, MMP-9, Bcl-2/xl, VEGF, COX-2) [5]: suppressed the expression of these proteins
